PubChem BioAssay (NCI)
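Briefly, cells in 96-well plates were exposed to five compound concentrations for 48 h, and endpoints were estimated by linear interpolation. GI50 is the concentration that inhibits growth by half. TGI marks complete inhibition of growth.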

Legend:
Experiment in all cases: NCI-60 cell line screen, 48 h
[1] = system: RPMI-8226 leukemia
[2] = system: SK-MEL-28 melanoma
[3] = system: A498 renal
[4] = system: HT29 colon
[5] = system: CAKI-1 renal
[6] = system: OVCAR-3 ovarian
[7] = system: NCI-H460 lung
[8] = system: NCI-H522 lung
[9] = system: COLO 205 colon
[10] = system: OVCAR-5 ovarian

Compound | GI50 [1] [µM] | TGI [1] [µM] | GI50 [2] [µM] | TGI [2] [µM] | GI50 [3] [µM] | TGI [3] [µM] | GI50 [4] [µM] | TGI [4] [µM] | GI50 [5] [µM] | TGI [5] [µM] | GI50 [6] [µM] | TGI [6] [µM] | GI50 [7] [µM] | TGI [7] [µM] | GI50 [8] [µM] | TGI [8] [µM] | GI50 [9] [µM] | TGI [9] [µM] | GI50 [10] [µM] | TGI [10] [µM]
COc1cc(C2CC(c3ccccc3)=NN2C(C)=O)cc(OC)c1OC (stereo not given) | 2.56 | > 27.7 | 6.48 | > 100 | 4.79 | > 100 | 2.57 | > 100 | 2.45 | > 100 | 2.11 | 6.52 | 3.55 | > 51 | 5.53 | > 100 | 2.92 | > 41 | 70.7 | > 100
Cc1ccc(-c2nc(N)c(C#N)c3c2CCOc2c-3ccc3ccccc23)cc1 | 0.29 | 2.26 | 2.48 | > 100 | 0.0794 | 0.609 | 0.387 | 54.1 | 0.171 | 16.9 | 0.069 | 1.86 | 0.332 | > 46.4 | 0.507 | > 100 | 0.418 | > 100 | 4.74 | > 100
O=C(Cc1ccccc1)NC(c1ccc(Cl)cc1)c1c(O)ccc2ccccc12 (stereo not given) | 2.84 | 8.36 | 3.16 | 11.6 | 0.985 | 7.72 | 3.74 | 11.3 | 2.52 | 10.2 | 2.97 | 7.64 | 2.66 | 7.61 | 2.82 | 7.57 | 1.98 | 3.48 | 3.16 | 10.2
O=C(NCCNc1nccc(-c2c(-c3ccc(F)cc3)nc3sccn23)n1)c1ccccc1 | 5.88 | 27 | 13.4 | 37.1 | 15.1 | > 100 | 4.31 | > 100 | 2.48 | 25.1 | 16.2 | > 100 | 3.28 | 22.3 | 11.1 | 27.4 | 1.84 | 14.6 | 18.1 | 99.3
N#C/C(=C1C=C/C(=N\O)C(Cl)=C\1)c1ccccc1 | 0.451 | 4.41 | 6.77 | 21.8 | 3.34 | 64.7 | 3.35 | 10.9 | 1.68 | 21.3 | 3.31 | 17 | 2.82 | 11.9 | 1.98 | 7.92 | 7.52 | 24.4 | 3.71 | 13.7
CS(=O)(=O)c1ccc(Oc2cc(F)cc(C#N)c2)c2c1[C@H](O)C(F)(F)C2 | > 100 | > 100 | > 100 | > 100 | > 100 | > 100 | > 100 | > 100 | > 100 | > 100 | > 100 | > 100 | > 100 | > 100 | > 100 | > 100 | > 100 | > 100 | > 100 | > 100
O=C1/C(=C/c2ccccc2F)CN(C(=O)C(Cl)Cl)C/C1=C\c1ccccc1F | 0.0831 | 0.935 | 0.477 | 1.47 | 1.54 | 3.14 | 0.271 | 1.06 | 0.986 | 2.3 | 0.319 | 1.02 | 0.55 | 2.24 | 0.281 | 1.06 | 0.711 | 2.57 | 0.796 | 2.29
Cc1sc(NC2=NC(=O)/C(=C\c3ccccc3)S2)nc1-c1nc(NC2=NC(=O)/C(=C\c3ccccc3)S2)sc1C | 8.45 | 31.6 | 25.3 | > 50 | 12.1 | 30.7 | 23.3 | > 50 | 12.1 | 33.2 | 9.84 | 29.1 | 15.5 | > 50 | 22.3 | > 50 | 26.4 | > 50 | 26.2 | > 50
CCOC(=O)C(=O)Nc1c(C)cccc1C(C)C | – | > 100 | – | > 100 | – | > 100 | – | > 100 | – | > 100 | – | > 100 | – | > 100 | – | > 100 | – | > 100 | – | > 100
